Square brackets hold non-standard residues; d marks the D form. Peptide text beside a SMILES is read from it. * marks the point of attachment. Sta = CC(C)C[C@H](N)[C@@H](O)CC(=O)O; Isovaleryl = CC(C)CC(=O)*
How the values were obtained:
[1] = tested on: HepG2 cells; assay: Effect of protease inhibitors on degradation of endocytosed α-DNP antibody in HepG2 cells (50 kDa/25 kDa band ratio); details: for inhibition of α-DNP antibody degradation (triplicate): 12 hours, each concentration in triplicate, ALLN 100 and 10 μM, FIG. 117; for inhibition of α-DNP antibody degradation (initial screening): leupeptin 20 and 80 μM, E64 50 and 10 μM, antipain 50 and 100 μM, aprotinin 400 or 800 nM, PMSF 100 or 500 μM, AEBSF 10 μM, ALLN 10 μM, FIG. 116
From the text: The ratiometric comparison of band intensity at 50 kDa divided by the intensity of the 25 kDa was used as a measure of α-DNP antibody degradation. As endocytosed α-DNP antibody is degraded in cells, this ratio decreases. […] Each ratiometric measurement is produced using only the protein fragments present in the cell lysate.
Protease inhibitors which inhibit α-DNP antibody degradation are expected to cause an accumulation of fluorescent intensity at 50 kDa and a decrease in fluorescent intensity at 25 kDa.
Next it was studied whether the inhibition of α-DNP antibody degradation by protease inhibitors was reproducible. Each protease inhibitor concentration was tested in triplicate in HepG2 cells (FIG. 117).
Pepstatin at a concentration 15 μM was included as a negative control.

[2] = tested on: α-DNP antibody; assay: In vivo depletion of α-DNP antibody from serum in mice (ELISA); details: i.p. injection; FIG. 79A
Method: FIG. 94 illustrates that serum levels of α-DNP antibody decrease more rapidly following repeated treatment with DNP-GN3. Serum antibody levels were measured using an ELISA assay. Each experimental group contained three mice. Statistical differences in experiments involving in vivo depletion of α-DNP antibody were assessed by repeated measures two-way ANOVA with Tukey's tests for post-hoc comparison of simple effects between each of the treatment groups and PBS.
Single doses of DNP-GN3 were also found to be efficacious at mediating α-DNP antibody depletion, albeit less effectively than daily dosing (FIG. 96). […] Therefore, it was concluded that DNP-GN3 is able to mediate the depletion of a monoclonal antibody from serum, and functions across a wide range of target protein concentrations and dosing regimens.
DNP-GN3 was also found to be efficacious in depleting polyclonal α-DNP antibody from serum collected from mice immunized with DNP-keyhole limpet haemocyanin (KLH) (FIG. 97). […] Thus, the small molecule DNP-GN3 is not restricted in function to only monoclonal mouse antibodies, but is also effective at removing polyclonal α-DNP antibodies from circulation in mice.

[3] = tested on: HepG2 cells; assay: DNP-GN3-mediated endocytosis of fluorescently labeled α-DNP antibody by adherent HepG2 cells; type: cell-based, human; details: sodium azide and 2-deoxyglucose as combined treatment; FIG. 89
Method: It was next explored whether DNP-GN3 mediates the endocytosis of fluorescently labeled α-DNP antibody.
To explore the cellular mechanism of antibody uptake, cells were treated with chemical inhibitors of several endocytic pathways (FIG. 89).

[4] = tested on: HepG2 cells; assay: MIF-GN3-mediated endocytosis of Alexa 488-labeled human MIF by HepG2 cells; details: for effect of endocytic pathway inhibitors on MIF-GN3-mediated MIF endocytosis: MIF 100 nM, MIF-GN3 200 nM, FIG. 132
Method: Human MIF protein was fluorescently labeled with Alexa 488 NHS ester, then incubated with HepG2 cells in the presence of varying levels of MIF-GN3.
The ability of MIF-GN3 to mediate MIF endocytosis over a wide range of target protein concentrations was assessed.
Next, inhibitors of various endocytic pathways were utilized to determine if MIF-GN3 mediates MIF endocytosis in a manner consistent with ASGPR (FIG. 132).

[5] = molecular target: T1, human MIF (Homo sapiens, UniProt P14174); assay: Depletion of human MIF from cell culture supernatant (sandwich ELISA); type: cell-based; details: for depletion of MIF from cell culture supernatant, optimized ASGPR-binding motifs / depletion of human MIF from cell culture supernatant: human MIF 100 nM; for depletion of MIF from cell culture supernatant, optimized ASGPR-binding motifs: MIF-AF2 at 40 nM, 200 nM and 1 μM; for depletion of human MIF from cell culture supernatant: FIG. 128A
T1 sequence (P14174 2-115 limits assumed): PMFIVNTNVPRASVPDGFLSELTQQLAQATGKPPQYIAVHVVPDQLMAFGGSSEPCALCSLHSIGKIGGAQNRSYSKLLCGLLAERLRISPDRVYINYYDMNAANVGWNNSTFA
Method: The ability of bifunctional MIF-binding molecules to mediate the depletion of human MIF from cell culture was investigated. In these assays, human MIF was present at a concentration of 100 nM, and a sandwich ELISA assay was utilized to measure the concentration of human MIF remaining in the cell culture supernatant. The closely related bifunctional molecules MIF-GN3, MIF-PEG2-GN3, and MIF-PEG4-GN3 were used, as well as the structurally dissimilar molecule MIF-NVS-PEG3-GN3. […] Based on the ease of its synthesis and its efficacy in this experiment, MIF-GN3 was utilized for further studies. It was next investigated whether the MIF inhibitor 3w mediates MIF depletion from cell culture supernatant. […] When cells were treated with 3w, no depletion of exogenous MIF protein was observed after 24 hours (FIG. 128B).
Bifunctional molecules containing optimized ASGPR-binding motifs are also capable of mediating MIF depletion from cell culture supernatant (FIG. 129). The MIF-binding molecule MIF-AF1, which contains only a single ASGPR-binding sugar, was not effective at mediating depletion of MIF from supernatant at any concentration tested. It is hypothesized that this is due to the compound's low predicted affinity for ASGPR (μM range). […] At a concentration of either 200 nM or 1 μM, MIF-AF2 mediated nearly 100%/o depletion of MLF from the cell culture supernatant after 48 hours. […] In contrast to these molecules, which utilize optimized synthetic ASGPR ligands, the GalNAc-based molecule MIF-GN3 mediated only 67.0% and 56.0% removal of MIF from supernatant after 48 hours at concentrations of 1 μM and 200 nM, respectively. […] At a concentration of 40 nM (4.0 pmol of molecule), MIF-AF3 mediates the removal of 83.2% of MIF present in the cell culture supernatant, or 8.32 pmol of human MIF protein. Therefore, it was concluded that under the conditions of this experiment, MIF-AF3 mediates the depletion of 2.08 molar equivalents of MIF protein.

Compound: Cl.NCCc1ccc(S(=O)(=O)F)cc1 [AEBSF, 4-(2-aminoethyl)benzeneulfonyl fluoride hydrochloride]
- inhibition of α-DNP antibody degradation (triplicate) [1]: did not significantly inhibit
- toxicity to cells ([1]; HepG2 cells, pepstatin 5 μM after 24 hours, AEBSF 100 μM, ALLN 100 μM by 24 hours): toxic
- inhibition of α-DNP antibody degradation (initial screening) [1]: not effective

Compound: CC(C)C[C@H](NC(=O)[C@@H](O)[C@H](N)Cc1ccccc1)C(=O)O [Bestatin]
- inhibition of α-DNP antibody degradation (triplicate) [1]: did not significantly inhibit
- inhibition of α-DNP antibody degradation (initial screening) [1]: not effective

Compound: CC(C)C[C@H](NC(=O)[C@H]1O[C@@H]1C(=O)O)C(=O)NCCCCN=C(N)N [Compound E64, E64]
- inhibition of α-DNP antibody degradation (triplicate) [1]: shown to inhibit
- inhibition of α-DNP antibody degradation (initial screening) [1]: effective

Compound: O=C(CCOCC(COCCC(=O)NCCOCCOCCO)(COCCC(=O)NCCOCCOCCO)NC(=O)CNC(=O)COCCOCCOCCNc1ccc([N+](=O)[O-])cc1[N+](=O)[O-])NCCOCCOCCO [DNP-(OH)3]
- degradation of injected anti-DNP IgG antibodies in mouse serum [2]: did not show such effect

Compound: CCN(c1nc(N)c(C(=O)N=C(N)N)nc1Cl)C(C)C [EIPA, 5-(N-Ethyl-N-isopropyl)amiloride]
- effect of endocytic pathway inhibitors on intracellular fluorescence (DNP-GN3-mediated uptake) [3]: did not significantly decrease
- effect of endocytic pathway inhibitors on MIF-GN3-mediated MIF endocytosis [4]: significantly inhibited uptake

Compound: O=C(CCCOc1ccc2nc(-c3cn(-c4ccc(O)c(F)c4)nn3)ccc2c1)NCCOCCC(=O)NCCOCCOCCOCCOC[C@]12CO[C@H](O1)[C@H](NC(=O)C(F)(F)F)[C@@H](O)[C@H]2O [MIF-AF1]
- depletion of MIF from cell culture supernatant, optimized ASGPR-binding motifs ([5]; FIG. 129): not effective

Compound: O=C(CCOCC(COCCC(=O)NCCOCCOCCOCCOC[C@]12CO[C@H](O1)[C@H](NC(=O)C(F)(F)F)[C@@H](O)[C@H]2O)NC(=O)CCCOc1ccc2nc(-c3cn(-c4ccc(O)c(F)c4)nn3)ccc2c1)NCCOCCOCCOCCOC[C@]12CO[C@H](O1)[C@H](NC(=O)C(F)(F)F)[C@@H](O)[C@H]2O [MIF-AF2]
- depletion of MIF from the cell culture supernatant ([5]; 200 nM or 1 μM, after 48 hours, FIG. 129): ~100%
- depletion of MIF from cell culture supernatant, optimized ASGPR-binding motifs ([5]; FIG. 129): effective

Compound: O=C(CCOCC(COCCC(=O)NCCOCCOCCOCCOC[C@]12CO[C@H](O1)[C@H](NC(=O)C(F)(F)F)[C@@H](O)[C@H]2O)(COCCC(=O)NCCOCCOCCOCCOC[C@]12CO[C@H](O1)[C@H](NC(=O)C(F)(F)F)[C@@H](O)[C@H]2O)NC(=O)CCCOc1ccc2nc(-c3cn(-c4ccc(O)c(F)c4)nn3)ccc2c1)NCCOCCOCCOCCOC[C@]12CO[C@H](O1)[C@H](NC(=O)C(F)(F)F)[C@@H](O)[C@H]2O [MIF-AF3]
- amount of human MIF protein removed ([5]; 40 nM (4.0 pmol of molecule)): 8.32 pmol

Compound: CC(=O)NC1C(OCCOCCOCCNC(=O)CCOCC(COCCC(=O)NCCOCCOCCOC2OC(CO)C(O)C(O)C2NC(C)=O)(COCCC(=O)NCCOCCOCCOC2OC(CO)C(O)C(O)C2NC(C)=O)NC(=O)CNC(=O)COCCOCCOCCn2cc(COCCOCCOc3ccc(N4Cc5ccc(O)cc5OC4=O)cc3)nn2)OC(CO)C(O)C1O (stereo not drawn) [MIF-NVS-PEG3-GN3]
- depletion of human MIF from cell culture supernatant ([5]; 24 hours): effective

Compound: CC(=O)NC1C(OCCOCCOCCNC(=O)CCOCC(COCCC(=O)NCCOCCOCCOC2OC(CO)C(O)C(O)C2NC(C)=O)(COCCC(=O)NCCOCCOCCOC2OC(CO)C(O)C(O)C2NC(C)=O)NC(=O)CNC(=O)COCCOCCNC(=O)CCCOc2ccc3nc(-c4cn(-c5ccc(O)c(F)c5)nn4)ccc3c2)OC(CO)C(O)C1O (stereo not drawn) [MIF-PEG2-GN3]
- depletion of exogenous MIF protein from cell culture supernatant ([5]; 24 hours, FIG. 128B): mediated MIF depletion across a range of concentrations
- depletion of human MIF from cell culture supernatant ([5]; 24 hours): effective

Compound: CC(=O)NC1C(OCCOCCOCCNC(=O)CCOCC(COCCC(=O)NCCOCCOCCOC2OC(CO)C(O)C(O)C2NC(C)=O)(COCCC(=O)NCCOCCOCCOC2OC(CO)C(O)C(O)C2NC(C)=O)NC(=O)CNC(=O)COCCOCCOCCOCCNC(=O)CCCOc2ccc3nc(-c4cn(-c5ccc(O)c(F)c5)nn4)ccc3c2)OC(CO)C(O)C1O (stereo not drawn) [MIF-PEG4-GN3]
- depletion of human MIF from cell culture supernatant ([5]; 24 hours): effective

Compound: O=S(=O)(F)Cc1ccccc1 [PMSF, Phenylmethylsulfonyl fluoride]
- inhibition of α-DNP antibody degradation (triplicate) [1]: did not significantly inhibit
- inhibition of α-DNP antibody degradation (initial screening) [1]: not effective

Compound: CC(C)CC(=O)N[C@H](C(=O)N[C@H](C(=O)N[C@@H](CC(C)C)[C@@H](O)CC(=O)N[C@@H](C)C(=O)N[C@@H](CC(C)C)[C@@H](O)CC(=O)O)C(C)C)C(C)C [Pepstatin] (Isovaleryl-VV[Sta]A[Sta]-OH)
- inhibition of α-DNP antibody degradation (triplicate) [1]: did not significantly inhibit
- inhibition of α-DNP antibody degradation (initial screening) [1]: not effective

Compound: Cl.N [ammonium chloride, NH4Cl]
- effect of endocytic pathway inhibitors on MIF-GN3-mediated MIF endocytosis [4]: near background levels

Compound: CO/C1=C\C(C)=C\[C@@H](C)[C@@H](O)[C@@H](C)C/C(C)=C/C=C/[C@H](OC)[C@@H]([C@@H](C)[C@@H](O)[C@H](C)[C@@]2(O)C[C@@H](O)[C@H](C)[C@@H](C(C)C)O2)OC1=O [bafilomycin, Bafilomycin]
- effect of endocytic pathway inhibitors on intracellular fluorescence (DNP-GN3-mediated uptake) [3]: significantly decreased
- effect of endocytic pathway inhibitors on MIF-GN3-mediated MIF endocytosis [4]: near background levels

Compound: CCN(CC)CCCC(C)Nc1ccnc2cc(Cl)ccc12 (stereo not drawn) [chloroquine, Chloroquine]
- effect of endocytic pathway inhibitors on intracellular fluorescence (DNP-GN3-mediated uptake) [3]: significantly decreased
- effect of endocytic pathway inhibitors on MIF-GN3-mediated MIF endocytosis [4]: near background levels

Compound: C=C1[C@@H](C)[C@H]2[C@H](Cc3ccccc3)NC(=O)[C@]23[C@H](OC(C)=O)/C=C/[C@@](C)(O)C(=O)[C@@H](C)C/C=C/[C@H]3[C@@H]1O [cytochalasin D]
- effect of endocytic pathway inhibitors on intracellular fluorescence (DNP-GN3-mediated uptake) [3]: did not significantly decrease
- toxicity of endocytosis inhibitors to cells ([4]; HepG2 cells in the presence of MIF and MIF-GN3): toxic

Compound: CC(=O)N[C@@H](CC(C)C)C(=O)N[C@@H](CC(C)C)C(=O)N[C@H](C=O)CCCNC(=N)N [leupeptin, Leupeptin]
- inhibition of α-DNP antibody degradation (triplicate) [1]: shown to inhibit
- inhibition of α-DNP antibody degradation (initial screening) [1]: effective

Compound: Aprotinin
- inhibition of α-DNP antibody degradation (triplicate) [1]: did not significantly inhibit
- inhibition of α-DNP antibody degradation (initial screening) [1]: not effective
